Reference: patent US8975398B2, “NAMPT inhibitors” (AbbVie Inc., priority 2012, dated 2015)

How the values were obtained:
[1] = target: NAMPT (human, recombinant, C-terminally His-tagged) (Homo sapiens, UniProt P43490); assay: Time-Resolved Fluorescence Resonance Energy Transfer (TR-FRET) Binding Assay of NAMPT; conditions: 6.8 nM NAMPT, 200 nM probe, equilibrated 3 hours, absence of substrates
Procedure, shortened: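 Recombinant C-terminally His-tagged human NAMPT (6.8 nM) incubated 3 h at room temperature with 200 nM Oregon Green 488–labelled nicotinamide-competitive probe and 1 nM Tb-anti-His antibody in HEPES pH 7.5, 2% DMSO. TR-FRET ratio Em520/Em495 normalized to controls; IC50 from four-parameter logistic fit.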

NAMPT = NAMPT (Homo sapiens, UniProt P43490); assay: Time-Resolved Fluorescence Resonance Energy Transfer (TR-FRET) Binding Assay of NAMPT with PRPP; conditions: 2 nM NAMPT, 2 nM probe, 200 uM PRPP and 2.5 mM ATP, equilibrated 16 hours
Procedure, shortened: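 Final mix: 2 nM NAMPT, 2 nM probe, 1 nM Tb-anti-His antibody, 200 uM PRPP, 2.5 mM ATP, 2% DMSO in 1× assay buffer. Equilibrated 16 hours before TR-FRET read, allowing possible enzymatic modification of compounds.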

NAMPT, sequence (P43490 whole entry): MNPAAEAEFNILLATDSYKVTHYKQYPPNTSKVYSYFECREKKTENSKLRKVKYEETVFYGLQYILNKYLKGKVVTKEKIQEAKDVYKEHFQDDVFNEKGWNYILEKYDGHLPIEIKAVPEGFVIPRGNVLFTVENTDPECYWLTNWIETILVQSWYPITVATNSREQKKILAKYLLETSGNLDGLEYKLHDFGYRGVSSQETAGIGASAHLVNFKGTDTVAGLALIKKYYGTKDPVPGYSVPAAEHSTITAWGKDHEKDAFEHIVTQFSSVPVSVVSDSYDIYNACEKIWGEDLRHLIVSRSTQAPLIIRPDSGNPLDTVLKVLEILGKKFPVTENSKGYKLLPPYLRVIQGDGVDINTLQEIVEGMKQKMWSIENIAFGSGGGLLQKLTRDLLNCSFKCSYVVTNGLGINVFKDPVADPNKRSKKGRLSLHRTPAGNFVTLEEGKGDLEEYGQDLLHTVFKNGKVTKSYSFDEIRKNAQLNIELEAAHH
NAMPT (human, recombinant, C-terminally His-tagged), sequence (P43490 whole entry): as above

| SMILES | IC50 [1] | IC50 (NAMPT) |
| --- | --- | --- |
| CC1(C(=O)N2CCC(c3ccc(NC(=O)C4CN(c5cccnc5)C4)cc3)CC2)CC1 [Example 110, N-(4-{1-[(1-methylcyclopropyl)carbonyl]piperidin-4-yl}phenyl)-1-(pyridin-3-yl)azetidine-3-carboxamide] | 0.00663 µM | 0.000169 µM |
| O=C(Nc1ccc(C2CCN(C(=O)CCN3CCCCC3)CC2)cc1)C1CN(c2cccnc2)C1 [Example 130, N-(4-{1-[3-(piperidin-1-yl)propanoyl]piperidin-4-yl}phenyl)-1-(pyridin-3-yl)azetidine-3-carboxamide] | 0.288 µM | 0.000535 µM |
| Cc1ncccc1N1CC(C(=O)Nc2ccc(C3CCN(C(=O)CN4CCOCC4)CC3)cc2)C1 [Example 164, 1-(2-methylpyridin-3-yl)-N-{4-[1-(morpholin-4-ylacetyl)piperidin-4-yl]phenyl}azetidine-3-carboxamide] | 0.987 µM | 0.124 µM |
| CCC(C)CC(=O)N1CCC(Oc2ccc(NC(=O)C3CN(c4cccnc4)C3)cc2)CC1 (centres unmarked) [Example 38, N-(4-{[1-(3-methylpentanoyl)piperidin-4-yl]oxy}phenyl)-1-(pyridin-3-yl)azetidine-3-carboxamide] | 0.0465 µM | 0.0009 µM |
| CCCCC(=O)N1CCC(c2ccc(NC(=O)C3CN(c4cccnc4C)C3)cc2)CC1 [Example 159, 1-(2-methylpyridin-3-yl)-N-[4-(1-pentanoylpiperidin-4-yl)phenyl]azetidine-3-carboxamide] | 0.137 µM | 0.0612 µM |
| O=C(Nc1ccc(OC2CCN(C(=O)CC3CCOCC3)CC2)cc1)C1CN(c2cnccc2C(F)(F)F)C1 [Example 7, N-(4-{[1-(tetrahydro-2H-pyran-4-ylacetyl)piperidin-4-yl]oxy}phenyl)-1-[4-(trifluoromethyl)pyridin-3-yl]azetidine-3-carboxamide] | 0.104 µM | 0.0847 µM |
| CC(C)(C)CC(=O)N1CCC(Oc2ccc(NC(=O)C3CN(c4cccnc4)C3)cc2)CC1 [Example 41, N-(4-{[1-(3,3-dimethylbutanoyl)piperidin-4-yl]oxy}phenyl)-1-(pyridin-3-yl)azetidine-3-carboxamide] | 0.0692 µM | 0.00078 µM |
| O=C(Nc1ccc(C2CCN(C(=O)Cc3ccc(C(F)(F)F)cc3)CC2)cc1)C1CN(c2cccnn2)C1 [Example 371, 1-(pyridazin-3-yl)-N-[4-(1-{[4-(trifluoromethyl)phenyl]acetyl}piperidin-4-yl)phenyl]azetidine-3-carboxamide] | 0.0567 µM | 0.000438 µM |
| O=C(Nc1ccc(C2CCN(C(=O)CC3CCCC3)CC2)cc1)[C@H]1CCN(c2ccnnc2)C1 [Example 142, (3S)—N-{4-[1-(cyclopentylacetyl)piperidin-4-yl]phenyl}-1-(pyridazin-4-yl)pyrrolidine-3-carboxamide] | 1.56 µM | 0.0328 µM |
| COCC(=O)N1CCC(c2ccc(NC(=O)C3CN(c4cccnc4)C3)cc2)CC1 [Example 135, N-{4-[1-(methoxyacetyl)piperidin-4-yl]phenyl}-1-(pyridin-3-yl)azetidine-3-carboxamide] | 0.0339 µM | 0.000293 µM |
| O=C(Nc1ccc(C2CCN(C(=O)CC3CCOCC3)CC2)cc1)C1CN(c2ccnnc2)C1 [Example 145, 1-(pyridazin-4-yl)-N-{4-[1-(tetrahydro-2H-pyran-4-ylacetyl)piperidin-4-yl]phenyl}azetidine-3-carboxamide] | 0.0406 µM | 0.0581 µM |
| O=C(Nc1ccc(OC2CCN(C(=O)Cc3ccc(F)cc3)CC2)cc1)C1CN(c2cccnn2)C1 [Example 232, N-[4-({1-[(4-fluorophenyl)acetyl]piperidin-4-yl}oxy)phenyl]-1-(pyridazin-3-yl)azetidine-3-carboxamide] | 0.141 µM | 0.000563 µM |
| O=C(Nc1ccc(OC2CCN(C(=O)CC3CCCC3)CC2)cc1)C1CN(c2cccnc2)C1 [Example 69, N-(4-{[1-(cyclopentylacetyl)piperidin-4-yl]oxy}phenyl)-1-(pyridin-3-yl)azetidine-3-carboxamide] | 0.0686 µM | 0.000918 µM |
| CC(C)C(=O)N1CCC(c2ccc(NC(=O)C3CN(c4cccnn4)C3)cc2)CC1 [Example 147, N-{4-[1-(2-methylpropanoyl)piperidin-4-yl]phenyl}-1-(pyridazin-3-yl)azetidine-3-carboxamide] | 0.0346 µM | 0.00147 µM |
| O=C(Nc1ccc(OC2CCN(C(=O)CC3CC3)CC2)cc1)C1CN(c2ccnnc2)C1 [Example 293, N-(4-{[1-(cyclopropylacetyl)piperidin-4-yl]oxy}phenyl)-1-(pyridazin-4-yl)azetidine-3-carboxamide] | 0.0782 µM | 0.0253 µM |
| O=C(Nc1ccc(OC2CCN(C(=O)c3ccccn3)CC2)cc1)C1CN(c2ccnnc2)C1 [Example 296, 1-(pyridazin-4-yl)-N-(4-{[1-(pyridin-2-ylcarbonyl)piperidin-4-yl]oxy}phenyl)azetidine-3-carboxamide] | 0.149 µM | 0.0571 µM |

| SMILES | IC50 [1] | IC50 (NAMPT) |
| --- | --- | --- |
| CC(=O)N[C@@H](CC(C)C)C(=O)N1CCC(c2ccc(NC(=O)C3CN(c4cccnn4)C3)cc2)CC1 [Example 385, N-{4-[1-(N-acetyl-L-leucyl)piperidin-4-yl]phenyl}-1-(pyridazin-3-yl)azetidine-3-carboxamide] | 0.0551 µM | 0.00124 µM |
| O=C(Nc1ccc(OC2CCN(C(=O)C3CCOC3)CC2)cc1)C1CN(c2cccnn2)C1 (centres unmarked) [Example 226, 1-(pyridazin-3-yl)-N-(4-{[1-(tetrahydrofuran-3-ylcarbonyl)piperidin-4-yl]oxy}phenyl)azetidine-3-carboxamide] | 0.242 µM | 0.000896 µM |
| O=C(Nc1ccc(OC2CCN(C(=O)Cc3ccccc3F)CC2)cc1)C1CN(c2ccnnc2)C1 [Example 308, N-[4-({1-[(2-fluorophenyl)acetyl]piperidin-4-yl}oxy)phenyl]-1-(pyridazin-4-yl)azetidine-3-carboxamide] | 0.0369 µM | 0.0184 µM |
| CCC(=O)N1CCC(Oc2ccc(NC(=O)C3CN(c4cccnc4)C3)cc2)CC1 [Example 65, N-{4-[(1-propanoylpiperidin-4-yl)oxy]phenyl}-1-(pyridin-3-yl)azetidine-3-carboxamide] | 0.121 µM | 0.000704 µM |
| O=C(Nc1ccc(C2CCN(C(=O)c3cccc(C(F)(F)F)c3)CC2)cc1)C1CN(c2cccnn2)C1 [Example 354, 1-(pyridazin-3-yl)-N-(4-{1-[3-(trifluoromethyl)benzoyl]piperidin-4-yl}phenyl)azetidine-3-carboxamide] | 0.0828 µM | 0.000837 µM |
| O=C(Nc1ccc(OC2CCN(C(=O)CC3C[C@@H]4CC[C@H]3C4)CC2)cc1)C1CN(c2cccnc2)C1 (stereo partly drawn) [Example 36, N-[4-({1-[(1S,4R)-bicyclo[2.2.1]hept-2-ylacetyl]piperidin-4-yl}oxy)phenyl]-1-(pyridin-3-yl)azetidine-3-carboxamide] | 0.0401 µM | 0.000882 µM |
| O=C(Nc1ccc(OC2CCN(C(=O)CC(F)(F)F)CC2)cc1)C1CN(c2ccnnc2)C1 [Example 268, 1-(pyridazin-4-yl)-N-(4-{[1-(3,3,3-trifluoropropanoyl)piperidin-4-yl]oxy}phenyl)azetidine-3-carboxamide] | 0.119 µM | 0.0421 µM |
| O=C(Nc1ccc(OC2CCN(C(=O)C3CCOC3)CC2)cc1)C1CN(c2ccnnc2)C1 (centres unmarked) [Example 298, 1-(pyridazin-4-yl)-N-(4-{[1-(tetrahydrofuran-3-ylcarbonyl)piperidin-4-yl]oxy}phenyl)azetidine-3-carboxamide] | 0.192 µM | 0.0611 µM |
| CCC(C)(C)C(=O)N1CCC(c2ccc(NC(=O)C3CN(c4cccnc4)C3)cc2)CC1 [Example 133, N-{4-[1-(2,2-dimethylbutanoyl)piperidin-4-yl]phenyl}-1-(pyridin-3-yl)azetidine-3-carboxamide] | 0.012 µM | 0.000626 µM |
| CC(C)CC(=O)N1CCC(Oc2ccc(NC(=O)C3CN(c4cccnn4)C3)cc2)CC1 [Example 225, N-(4-{[1-(3-methylbutanoyl)piperidin-4-yl]oxy}phenyl)-1-(pyridazin-3-yl)azetidine-3-carboxamide] | 0.158 µM | 0.00107 µM |
| CC(=O)N[C@@H](CC(C)C)C(=O)N1CCC(c2ccc(NC(=O)C3CN(c4cccnc4)C3)cc2)CC1 [Example 120, N-{4-[1-(N-acetyl-L-leucyl)piperidin-4-yl]phenyl}-1-(pyridin-3-yl)azetidine-3-carboxamide] | 0.0116 µM | 0.000294 µM |
| O=C(Nc1ccc(OC2CN(C(=O)C(F)(F)c3ccccc3)C2)cc1)C1CN(c2ccnnc2)C1 [Example 201, N-[4-({1-[difluoro(phenyl)acetyl]azetidin-3-yl}oxy)phenyl]-1-(pyridazin-4-yl)azetidine-3-carboxamide] | 0.0121 µM | 0.0182 µM |
| CCCC(=O)N1CCC(c2ccc(NC(=O)C3CN(c4cccnc4)C3)cc2)CC1 [Example 134, N-[4-(1-butanoylpiperidin-4-yl)phenyl]-1-(pyridin-3-yl)azetidine-3-carboxamide] | 0.0169 µM | 0.000361 µM |
| O=C(Nc1ccc(OC2CCN(C(=O)c3ccc(F)cc3F)CC2)cc1)C1CN(c2cccnn2)C1 [Example 229, N-(4-{[1-(2,4-difluorobenzoyl)piperidin-4-yl]oxy}phenyl)-1-(pyridazin-3-yl)azetidine-3-carboxamide] | 0.048 µM | 0.000584 µM |
| COCC(=O)N1CCC(c2ccc(NC(=O)C3CN(c4cccnn4)C3)cc2)CC1 [Example 333, N-{4-[1-(methoxyacetyl)piperidin-4-yl]phenyl}-1-(pyridazin-3-yl)azetidine-3-carboxamide] | 0.0509 µM | 0.000631 µM |
